Read-outs that look alike come from different tables or passages of the source. Blank lines part the entries; values can stand above or below the compound they belong to.
What was measured:
[1] = HPLC potency and stability of stored antibiotic solutions; settings: for Stability of the composition (assay %): composition of Example 2 (with L-glycine);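 as to all read-outs here: stored antibiotic compositions assayed by HPLC for remaining potency, USP acceptance requires at least 90% of nominal concentration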
Procedure: The final product was tested chromatographically (HPLC) for potency and stability after being stored for 6 months. […] According to the USP rules, at least a 90% concentration is required for the product to be acceptable.
The stability of this composition was then monitored for a period of 180 days.

Stability of the composition (assay %) (0 days): 102.3% | Stability of the composition (assay %) (30 days): 106.9% | Stability of the composition (assay %) (60 days): 98.9% | Stability of the composition (assay %) (90 days): 97.6% | Stability of the composition (assay %) (180 days): 97.9%
Compound: NC[C@H]1O[C@H](O[C@H]2[C@H](O)[C@@H](O[C@H]3O[C@H](CO)[C@@H](O)[C@H](N)[C@H]3O)[C@H](N)C[C@@H]2N)[C@H](N)C[C@@H]1O [Tobramycin, (2S,3R,4S,5S,6R)-4-amino-2-{[(1S,2S,3R,4S,6R)-4,6-diamino-3-{[(2R,3R,5S,6R)-3-amino-6-(aminomethyl)-5-hydroxyoxan-2-yl]oxy}-2-hydroxycyclohexyl]oxy}-6-(hydroxymethyl)oxane-3,5-diol]
storage stability alone (180 days): withstood the storage for 180 days very well

Compound: Vancomycin
Stability result, % (HPLC potency) ([1]; Tobramycin-Vancomycin System, aqueous solution, 1.5 % tobramycin, 5% vancomycin, no lidocaine, stored at −4° C. in a dark place, Day 0): 108% | Stability result, % (HPLC potency) ([1]; Tobramycin-Vancomycin System, aqueous solution, 1.5 % tobramycin, 5% vancomycin, no lidocaine, stored at −4° C. in a dark place, Day 30): 108% | Stability result, % (HPLC potency) ([1]; Tobramycin-Vancomycin System, aqueous solution, 1.5 % tobramycin, 5% vancomycin, no lidocaine, stored at −4° C. in a dark place, Day 60): 106% | Stability result, % (HPLC potency) ([1]; Tobramycin-Vancomycin System, aqueous solution, 1.5 % tobramycin, 5% vancomycin, no lidocaine, stored at −4° C. in a dark place, Day 90): 107% | Stability result, % (HPLC potency) ([1]; Tobramycin-Vancomycin System, aqueous solution, 1.5 % tobramycin, 5% vancomycin, no lidocaine, stored at −4° C. in a dark place, Day 120): 91% | Stability result, % (HPLC potency) ([1]; Tobramycin-Vancomycin System, aqueous solution, 1.5 % tobramycin, 5% vancomycin, no lidocaine, stored at −4° C. in a dark place, Day 150): 83% | Stability result, % (HPLC potency) ([1]; Tobramycin-Vancomycin System, aqueous solution, 1.5 % tobramycin, 5% vancomycin, no lidocaine, stored at −4° C. in a dark place, Day 180): 81% | Stability result, % (HPLC potency) ([1]; Vancomycin alone, 5.0 % aqueous solution, stored in a dark place at room temperature, Day 0): 113% | Stability result, % (HPLC potency) ([1]; Vancomycin alone, 5.0 % aqueous solution, stored in a dark place at room temperature, Day 30): 106% | Stability result, % (HPLC potency) ([1]; Vancomycin alone, 5.0 % aqueous solution, stored in a dark place at room temperature, Day 60): 111% | Stability result, % (HPLC potency) ([1]; Vancomycin alone, 5.0 % aqueous solution, stored in a dark place at room temperature, Day 90): 106% | concentration of vancomycin ([1]; after 120 days storage, system having no lidocaine (Table 4)): ≤ 91% | Stability of the composition (assay %) ([1]; Day 0): 104.9% | Stability of the composition (assay %) ([1]; Day 30): 104.0% | Stability of the composition (assay %) ([1]; Day 60): 99.1% | Stability of the composition (assay %) ([1]; Day 90): 99.8% | Stability of the composition (assay %) ([1]; Day 180): 100.5% | storage stability alone ([1]; each antibiotic alone, 180 days (Tables 2 and 3)): withstood the storage for 180 days very well | concentration of vancomycin ([1]; same storage times (120 days and after), lidocaine present in the composition (Table 1)): at least 108%

— patent publication US20230302032A1, “ANTIBACTERIAL COMPOSITIONS AND METHODS FOR FABRICATING THEREOF” (Harrow IP LLC, priority 2020, published 2023)
